Source: US11478478B2, “2,3-disubstituted 1-acyl-4-amino-1,2,3,4-tetrahydroquinoline derivatives and their use as bromodomain inhibitors” (GLAXOSMITHKLINE INTELLECTUAL PROPERTY (NO.2) LIMITED, priority 2013, dated 2022)
Counter-ions that a name gives are not always drawn.

biological target: T1, BRD4 BD2 (Homo sapiens, UniProt O60885, Y97A); assay: TR-FRET binding assay, BRD4 BD2 (BD1-mutated protein); settings: read-out: pIC50 in the BRD4 BD2 assay (converted)
T1 construct: BRD4 (1-477) (Y97A) and (Y390A); made in house; host or cells: E. coli (pET15b vector)
Outline: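 Displacement of Alexa Fluor647-labelled bromodomain ligand (at Kd) from 10 nM His-tagged BRD4 (1-477, Y97A) read by Eu-anti-His TR-FRET (665/615 ratio) in pH 7.4 HEPES buffer, 0.5% DMSO. Compound preincubated 30 min at rt, detection ≥30 min. pIC50 derived from four-parameter fit after normalisation to controls.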

Point of comparison: `CC(=O)N1c2ccc(C3=CCOCC3)cc2[C@H](Nc2ncccn2)[C@@H](C)[C@@H]1C1CC1` (racemic) [Example 177, rac-1-((2S,3R,4R)-2-cyclopropyl-6-(3,6-dihydro-2H-pyran-4-yl)-3-methyl-4-(pyrimidin-2-ylamino)-3,4-dihydroquinolin-1(2H)-yl)ethanone, formic acid salt], IC50 100 nM. Against it:
- CC(=O)N1c2ccc(N3CCOCC3)cc2[C@H](Nc2ccccc2)[C@@H](C)[C@@H]1C (racemic) [Example 70, rac-1-((2S,3R,4R)-2,3-dimethyl-6-morpholino-4-(phenylamino)-3,4-dihydroquinolin-1(2H)-yl)ethanone] — the same, 100 nM
- CC(=O)N1c2ccc(F)cc2[C@H](Nc2ncccc2C#N)[C@@H](C)[C@@H]1C [Example 504, 2-(((2S,3R,4R)-1-acetyl-6-fluoro-2,3-dimethyl-1,2,3,4-tetrahydroquinolin-4-yl)amino)nicotinonitrile] — the same, 100 nM
- CC(=O)N1c2cc(O)ccc2[C@H](Nc2cccc(C)n2)[C@@H](C)[C@@H]1C1CC1 (racemic) [Example 65, rac-1-((2S,3R,4R)-2-cyclopropyl-7-hydroxy-3-methyl-4-((6-methylpyridin-2-yl)amino)-3,4-dihydroquinolin-1(2H)-yl)ethanone] — higher, 1000 to 100000 nM
- CC(=O)N1c2ccccc2[C@@H](Nc2cccc(C)n2)[C@H](C)[C@H]1C1CC1 (single isomer, unassigned) [Example 29b] — higher, 1000 to 100000 nM
- CC(=O)N1c2ccc(C#N)cc2[C@H](Nc2ncccc2C(N)=O)[C@@H](C)[C@@H]1C1CC1 [Example 314, 2-(((2S,3R,4R)-1-acetyl-6-cyano-2-cyclopropyl-3-methyl-1,2,3,4-tetrahydroquinolin-4-yl)amino)nicotinamide] — the same, 100 nM
- CC(=O)N1c2ccc(F)cc2[C@H](Nc2ncccc2C(N)=O)[C@@H](C)[C@@H]1C1CC1 [Example 523, 2-(((2S,3R,4R)-1-acetyl-2-cyclopropyl-6-fluoro-3-methyl-1,2,3,4-tetrahydroquinolin-4-yl)amino)nicotinamide] — the same, 100 nM
- CC(=O)N1c2cnccc2[C@H](Nc2ccccc2)[C@@H](C)[C@@H]1C (racemic) [Example 115, rac-1-((2S,3R,4R)-2,3-dimethyl-4-(phenylamino)-3,4-dihydro-1,7-naphthyridin-1(2H)-yl)ethanone formate] — the same, 100 nM
- CC[C@H]1[C@H](C)[C@@H](Nc2ccc(C#N)cn2)c2cc(C(=O)NC)ccc2N1C(C)=O (racemic) [Example 237, rac-(2S,3R,4R)-1-acetyl-4-((5-cyanopyridin-2-yl)amino)-2-ethyl-N,3-dimethyl-1,2,3,4-tetrahydroquinoline-6-carboxamide] — the same, 100 nM
- COCCn1cc(-c2ccc3c(c2)[C@H](Nc2cccc(C)n2)[C@@H](C)[C@H](C2CC2)N3C(C)=O)cn1 (single isomer, unassigned) [Example 136a] — the same, 100 nM
- CNC(=O)c1ccc2c(c1)[C@@H](Nc1cccc(C)n1)[C@H](C)[C@@H](C1CC1)N2C(C)=O (single isomer, unassigned) [Example 239b] — higher, 1000 to 100000 nM
- CC(=O)N1c2ccc(N3CCNCC3)cc2[C@H](Nc2ccc(C(N)=O)cc2)[C@@H](C)[C@@H]1C [Example 571, 4-(((2S,3R,4R)-1-acetyl-2,3-dimethyl-6-(piperazin-1-yl)-1,2,3,4-tetrahydroquinolin-4-yl)amino)benzamide] — the same, 100 nM
- CC(=O)N1c2ccc(N3CCNCC3)nc2[C@H](Nc2ccccc2)[C@@H](C)[C@@H]1C1CC1 (racemic) [Example 108, rac-1-((2S,3R,4R)-2-cyclopropyl-3-methyl-4-(phenylamino)-6-(piperazin-1-yl)-3,4-dihydro-1,5-naphthyridin-1(2H)-yl)ethanone] — higher, 1000 to 100000 nM
- CC(=O)N1c2ccc(N3CCC(C)C3)cc2[C@H](Nc2ccccc2)[C@@H](C)[C@@H]1C (mixture of isomers) [Example 80, 1-((rac-2S,3R,4R)-2,3-dimethyl-6-(3-methylpyrrolidin-1-yl)-4-(phenylamino)-3,4-dihydroquinolin-1(2H)-yl)ethanone] — the same, 100 nM
- CC(=O)N1c2ccc(N3CCC(N)CC3)nc2[C@H](Nc2ccccc2)[C@@H](C)[C@@H]1C1CC1 (racemic) [Example 109, rac-1-((2S,3R,4R)-6-(4-aminopiperidin-1-yl)-2-cyclopropyl-3-methyl-4-(phenylamino)-3,4-dihydro-1,5-naphthyridin-1(2H)-yl)ethanone] — higher, 1000 to 100000 nM
- CC(=O)N1c2ccc(C#N)cc2[C@H](Nc2cccc(C(N)=O)n2)[C@@H](C)[C@@H]1C1CC1 [Example 316, 6-(((2S,3R,4R)-1-acetyl-6-cyano-2-cyclopropyl-3-methyl-1,2,3,4-tetrahydroquinolin-4-yl)amino)picolinamide] — higher, 1000 to 100000 nM
- CC(=O)N1c2ccc(O)nc2[C@H](Nc2cccc(C)n2)[C@@H](C)[C@@H]1C1CC1 (racemic) [Example 112, rac-1-((2S,3R,4R)-2-cyclopropyl-6-hydroxy-3-methyl-4-((6-methylpyridin-2-yl)amino)-3,4-dihydro-1,5-naphthyridin-1(2H)-yl)ethanone] — higher, 1000 to 100000 nM
- CNC(=O)c1ccc2c(c1)[C@H](Nc1ccc(C#N)cc1)[C@@H](C)[C@H](C1CC1)N2C(C)=O (racemic) [Example 243, rac-(2S,3R,4R)-1-acetyl-4-((4-cyanophenyl)amino)-2-cyclopropyl-N,3-dimethyl-1,2,3,4-tetrahydroquinoline-6-carboxamide] — the same, 100 nM
- CC[C@@H]1[C@@H](C)[C@H](Nc2cccc(C)n2)c2ccccc2N1C(C)=O (single isomer, unassigned) [Example 25b] — higher, 1000 to 100000 nM
- COCCn1cc(-c2ccc3c(c2)[C@H](Nc2cnc(C)cn2)[C@@H](C)[C@H](C2CC2)N3C(C)=O)cn1 (single isomer, unassigned) [Example 138a] — the same, 100 nM
- CC(=O)N1c2ccc(F)cc2[C@H](Nc2nc(C)ccc2C(N)=O)[C@@H](C)[C@@H]1C [Example 528, 2-(((2S,3R,4R)-1-acetyl-6-fluoro-2,3-dimethyl-1,2,3,4-tetrahydroquinolin-4-yl)amino)-6-methylnicotinamide] — the same, 100 nM
- CC(=O)N1c2ccc(N3CCOCC3)cc2[C@H](Nc2ccc(C#N)cc2)[C@@H](C)[C@@H]1C [Example 197, 4-(((2S,3R,4R)-1-acetyl-2,3-dimethyl-6-morpholino-1,2,3,4-tetrahydroquinolin-4-yl)amino)benzonitrile] — the same, 100 nM
- CC(=O)N1c2ccc(C3=CCOCC3)cc2[C@@H](Nc2ccccn2)[C@H](C)[C@H]1C1CC1 (racemic) [Example 92, rac-1-((2S,3R,4R)-2-cyclopropyl-6-(3,6-dihydro-2H-pyran-4-yl)-3-methyl-4-(pyridin-2-ylamino)-3,4-dihydroquinolin-1(2H)-yl)ethanone] — the same, 100 nM
- CC(=O)N1c2ccc(F)cc2[C@H](Nc2cccnc2O)[C@@H](C)[C@@H]1C [Example 518, 1-((2S,3R,4R)-6-fluoro-4-((2-hydroxypyridin-3-yl)amino)-2,3-dimethyl-3,4-dihydroquinolin-1(2H)-yl)ethanone] — the same, 100 nM
- CC[C@H]1[C@H](C)[C@@H](Nc2ccc(C#N)cc2)c2cc(F)ccc2N1C(C)=O (single isomer, unassigned) [Example 147a] — higher, 1000 to 100000 nM
- COCCNC(=O)c1ccc2c(c1)[C@H](Nc1ncccn1)[C@@H](C)[C@H](C1CC1)N2C(C)=O [Example 489, (2S,3R,4R)-1-acetyl-2-cyclopropyl-N-(2-methoxyethyl)-3-methyl-4-(pyrimidin-2-ylamino)-1,2,3,4-tetrahydroquinoline-6-carboxamide] — the same, 100 nM
- CC(=O)N1c2ccc(-c3cn[nH]c3)cc2[C@H](Nc2nccc(C)n2)[C@@H](C)[C@@H]1C1CC1 [Example 582, 1-((2S,3R,4R)-2-cyclopropyl-3-methyl-4-((4-methylpyrimidin-2-yl)amino)-6-(1H-pyrazol-4-yl)-3,4-dihydroquinolin-1(2H)-yl)ethanone] — the same, 100 nM
- CC(=O)N1c2ccccc2[C@H](Nc2cccc(C#N)n2)[C@@H](C)[C@@H]1C1CC1 (racemic) [Example 50, rac-6-(((2S,3R,4R)-1-acetyl-2-cyclopropyl-3-methyl-1,2,3,4-tetrahydroquinolin-4-yl)amino)picolinonitrile] — higher, 1000 to 100000 nM
- CC(=O)N1c2ccccc2[C@@H](Nc2ccccc2)[C@H](C)[C@H]1C1CC1 (single isomer, unassigned) [Example 27b] — higher, 1000 to 100000 nM
- CC(=O)N1c2ccccc2[C@H](Nc2cncc(Cl)c2)[C@@H](C)[C@@H]1C (racemic) [Example 22, rac-1-((2S,3R,4R)-4-((5-chloropyridin-3-yl)amino)-2,3-dimethyl-3,4-dihydroquinolin-1(2H)-yl)ethanone] — the same, 100 nM
- CC(=O)N1c2ccccc2[C@H](Nc2ccccc2)[C@@H](C)[C@@H]1C1CC1 (single isomer, unassigned) [Example 27a] — the same, 100 nM
- CNC(=O)c1ccc2c(c1)[C@H](Nc1nccc(C)n1)[C@@H](C)[C@H](C1CC1)N2C(C)=O (racemic) [Example 240, rac-(2S,3R,4R)-1-acetyl-2-cyclopropyl-N,3-dimethyl-4-((4-methylpyrimidin-2-yl)amino)-1,2,3,4-tetrahydroquinoline-6-carboxamide] — the same, 100 nM
- CC(=O)N1c2ccccc2[C@H](Nc2ccc(Cl)cc2)[C@@H](C)[C@@H]1C (racemic) [Example 13, rac-1-((2S,3R,4R)-4-((4-chlorophenyl)amino)-2,3-dimethyl-3,4-dihydroquinolin-1(2H)-yl)ethanone] — the same, 100 nM
- CC(=O)N1c2cccnc2[C@H](Nc2cccc(C)n2)[C@@H](C)[C@@H]1C1CC1 (racemic) [Example 113, rac-1-((2S,3R,4R)-2-cyclopropyl-3-methyl-4-((6-methylpyridin-2-yl)amino)-3,4-dihydro-1,5-naphthyridin-1(2H)-yl)ethanone] — higher, 1000 to 100000 nM
